According to ChEMBL document CHEMBL1141318, “Cytotoxic lignans from the stem bark of Magnolia officinalis” (J Nat Prod, 2007):
≈ marks a conversion by molar mass, not a printed value.

Experiments:
Format in all cases: functional, cell-based
[1] = tested on: HeLa; assay: Cytotoxicity against human HeLa cells by MTT assay
[2] = tested on: A549; assay: Cytotoxicity against human A549 cells by MTT assay
[3] = tested on: K562; assay: Cytotoxicity against human K562 cells by MTT assay

Structure (SMILES) | IC50 [1] | IC50 [2] | IC50 [3]
C=CCc1ccc(O)c(-c2ccc(O)c(CC=C)c2)c1 [HONOKIOL] | > 5 µg/mL | > 5 µg/mL | > 5 µg/mL
C=CCc1cc(-c2cc(CC(O)CO)ccc2O)ccc1O (stereo unspecified) [MAGNOLIGNAN] | > 5 µg/mL | > 5 µg/mL | > 5 µg/mL
C=CCc1ccc(O)c(-c2ccc(OC)c(CC=C)c2)c1 [METHYLHONOKIOL] | > 5 µg/mL | > 5 µg/mL | > 5 µg/mL
COc1cc(/C=C/C=O)cc(OC)c1O[C@@H]1O[C@H](CO)[C@@H](O)[C@H](O)[C@H]1O [SINAPALDEHYDE GLUCOSIDE] | > 5 µg/mL | > 5 µg/mL | > 5 µg/mL
C=CCc1ccc(O)c(-c2cc(CC=C)ccc2O)c1 [MAGNOLOL] | > 5 µg/mL | > 5 µg/mL | > 5 µg/mL
COc1cc(/C=C/CO)cc(OC)c1O[C@@H]1O[C@H](CO)[C@@H](O)[C@H](O)[C@H]1O [SYRINGIN] | > 5 µg/mL | > 5 µg/mL | > 5 µg/mL
C=CCc1cc(-c2cc(C=O)ccc2O)ccc1O [MAGNALEDEHYDE E] | > 5 µg/mL | > 5 µg/mL | > 5 µg/mL
C=CCc1cc(-c2cc(C=O)ccc2O)ccc1OC | > 5 µg/mL | > 5 µg/mL | > 5 µg/mL
C=CCc1cc(-c2cc(/C=C/C=O)ccc2O)ccc1OC [4'-METHOXYMAGNALEDEHYDE B] | > 5 µg/mL | > 5 µg/mL | > 5 µg/mL
COc1ccc(-c2cc(/C=C/C=O)ccc2O)cc1/C=C/C=O | 3.9 µg/mL (≈ 12.6 µM) | 1.5 µg/mL (≈ 4.86 µM) | 3.7 µg/mL (≈ 12 µM)
C=CCc1cc(-c2cc(/C=C/C=O)ccc2O)ccc1O [MAGNALEDEHYDE B] | > 5 µg/mL | > 5 µg/mL | > 5 µg/mL
COc1cccc2c1C(=O)c1c(O)c3c(c(O)c1C2=O)C[C@@](O)(C(=O)CO)C[C@@H]3O[C@H]1C[C@H](N)[C@H](O)[C@H](C)O1 [DOXORUBICIN] | 0.8 µg/mL (≈ 1.47 µM) | 1.2 µg/mL (≈ 2.21 µM) | 1.41 µg/mL (≈ 2.59 µM)
